The source of these data is patent US8518968B2, “Hydrazone and diacyl hydrazine compounds and methods of use” (The United States of America, as represented by the …, priority 2009, dated 2013).

Each structure is given as a SMILES string. Structures can show the parent of a compound that is named as a salt.

The first data set relates to JEKO-1 cells stably transfected with shRNAs to luciferase or NOXA. The data set can be described thus: Effect of NOXA shRNA on cytotoxicity in JEKO-1 cells (MTT). The format is cell-based. Conditions: JEKO-1 shLuc vs shNoxa, 24 hours. As to the method:
The effect of NOXA on cytotoxicity of CBU-028, EERI, or bortezomib is determined. FIG. 4 presents graphs comparing CBU-028, EERI, and bortezomib with respect to percent cell viability as a function of concentration, measured using JEKO-1 cells stably transfected with shRNAs to luciferase (shLuc, control, ▪) or NOXA (shNoxa, ◯, sequence: [NT]) after treatment with the compound for 24 hrs, with viability determined with MTT as described above and normalized to the untreated control.
`CC(C)C[C@H](NC(=O)[C@H](Cc1ccccc1)NC(=O)c1cnccn1)B(O)O` [bortezomib]: the “requirement of NOXA for cytotoxicity” value is “Noxa is equally required”.

The test system of another data set is JEKO-1 cells. The data set can be described thus: cells. Conditions: Homo sapiens, JeKo-1, 48 h.
In the case of `CC1(C)C(N(O)C(=O)Nc2ccc(C(F)(F)F)cc2)N(c2ccc(C(F)(F)F)cc2)C(=O)N1CC(=O)NN` (centres unmarked) [CBU-007, 1-(1-(2-hydrazinyl-2-oxoethyl)-5,5-dimethyl-2-oxo-3-(4-(tri-fluoromethyl)phenyl)imi-dazolidin-4-yl)-1-hydroxy-3-(4-(trifluoromethyl)phenyl)urea], 30 µM corresponded to half-maximal inhibition (IC50).
`O=C(N/N=C/C=C/c1ccc([N+](=O)[O-])o1)c1ccc(C(=O)N/N=C/C=C/c2ccc([N+](=O)[O-])o2)c(O)c1O` [CBU-049, (N′1E,N′4E)-2,3-dihydroxy-N′1,N′4-bis((E)-3-(5-nitrofuran-2-yl)allylidene)terephthalo hydrazide] registered an IC50 of 1.5 µM. Against the preceding compound, the IC50 is about 20-fold lower.

Still in this data set, the particulars now being: Homo sapiens, JeKo-1, 48 h, JEKO-1 cells, incubated 2 days, MTT, four parameter logistic fit.
In turn, `CC1(C)C(N(O)C(=O)Nc2ccc(C(F)(F)F)cc2)N(c2ccc(C(F)(F)F)cc2)C(=O)N1CC(=O)N/N=C/C=C/c1ccc([N+](=O)[O-])o1` (centres unmarked) [CBU-008] displayed a 50% inhibitory concentration (IC50) of 2.5 µM.
On the same count and under the same terms, under `CC1(C)C(N(O)C(=O)Nc2ccc(Cl)cc2)N(c2ccc(C(F)(F)F)cc2)C(=O)N1CC(=O)N/N=C/C=C/c1ccc([N+](=O)[O-])o1` (centres unmarked) [CBU-013] stands 3 µM; under `CC1(C)C(N(O)C(=O)Nc2ccc(C(F)(F)F)cc2)N(c2ccc(Cl)cc2)C(=O)N1CC(=O)N/N=C/C=C/c1ccc([N+](=O)[O-])o1` (centres unmarked) [CBU-014], 3 µM.
On the same count and under the same terms, in the case of `O=C(N/N=C/C=C/c1ccc([N+](=O)[O-])o1)c1ccccc1` [CBU-015, (E)-N′-((E)-3-(5-nitrofuran-2-yl)allylidene)benzohydrazide] it was 8 µM; in that of `O=C(N/N=C/C=C/c1ccc([N+](=O)[O-])o1)c1cccnc1` [CBU-016, (E)-N′-((E)-3-(5-nitrofuran-2-yl)allylidene)nicotinonhydrazide], 7 µM; in that of `CCNC(=S)N/N=C/C=C/c1ccc([N+](=O)[O-])o1` [CBU-017, (E)-N-ethyl-2-((E)-3-(5-nitrofuran-2-yl)allylidene)hydrazine-carbothioamide], 15 µM.
With `CC(C)(C)OC(=O)N/N=C/C=C/c1ccc([N+](=O)[O-])o1` [CBU-018, (E)-tert-butyl 2-((E)-3-(5-nitrofuran-2-yl)allylidene)hydrazine-carboxylate], it took 18 µM to reach half-maximal inhibition (IC50).
The same measure, in the same setting: in the case of `C[N+](C)(C)CC(=O)N/N=C/C=C/c1ccc([N+](=O)[O-])o1` [CBU-019] it was 3.5 µM.
Turning to `N=C(N)N/N=C/C=C/c1ccc([N+](=O)[O-])o1` [CBU-020, (E)-2-((E)-3-(5-nitrofuran-2-yl)allylidene)hydrazine-carboximidamide hydrochloride], the IC50 was 4 µM.
In turn, `O=C(N/N=C/C=C/c1ccc([N+](=O)[O-])o1)c1cccc(O)c1` [CBU-021, (E)-3-hydroxy-N′-((E)-3-(5-nitrofuran-2-yl)allylidene)benzohydrazide] gave an IC50 of 8 µM. Against the preceding compound, the IC50 is about 2-fold higher.
Take `O=C(CNC(=O)Nc1ccc(Cl)cc1)N/N=C/C=C/c1ccc([N+](=O)[O-])o1` [CBU-022, 1-(4-chlorophenyl)-3-(2-((E)-2-((E)-3-(5-nitrofuran-2-yl)allylidene)hydrazinyl)-2-oxoethyl)urea]: it took 6 µM to reach half-maximal inhibition (IC50).
On the same count and under the same terms, in the case of `CC1(C)C(N(O)C(=O)Nc2ccc(Cl)cc2)N(c2ccc(Cl)cc2)C(=O)N1CC(=O)N/N=C/C=C/c1ccco1` (centres unmarked) [CBU-023] it was 15 µM; in that of `CC1(C)C(N(O)C(=O)Nc2ccc(Cl)cc2)N(c2ccc(Cl)cc2)C(=O)N1CC(=O)N/N=C/c1ccc([N+](=O)[O-])o1` (centres unmarked) [CBU-024], 7 µM.
Same read-out and setting: under `O=C(N/N=C/C=C/c1ccc([N+](=O)[O-])o1)c1ccccc1O` [CBU-025, (E)-2-hydroxy-N′-((E)-3-(5-nitrofuran-2-yl)allylidene)benzohydrazide] stands 6.5 µM; under `O=C(N/N=C/C=C/c1ccc([N+](=O)[O-])o1)c1ccc(O)cc1` [CBU-027, (E)-4-hydroxy-N′-((E)-3-(5-nitrofuran-2-yl)allylidene)benzohydrazide], 7.5 µM; under `O=C(N/N=C/C=C/c1ccc([N+](=O)[O-])o1)c1ccncc1` [CBU-033, (E)-N′-((E)-3-(5-nitrofuran-2-yl)allylidene)isonicotino-hydrazide], 6 µM.
In turn, `O=C(N/N=C/C=C/c1ccc([N+](=O)[O-])o1)c1cccs1` [CBU-034, (E)-N′-((E)-3-(5-nitrofuran-2-yl)allylidene)thiophene-2-carbohydrazide] had a half-inhibitory concentration (IC50) of 20 µM.
Consider `O=C(N/N=C/C=C/c1ccc([N+](=O)[O-])o1)c1nc(O)c2ccccc2c1O` [CBU-036, (E)-1,4-dihydroxy-N′-((E)-3-(5-nitrofuran-2-yl)allylidene)isoquinoline-3-carbohydrazide], for which the half-inhibitory concentration (IC50) worked out at 9 µM.
In the case of `Cc1cccc(C(=O)N/N=C/C=C/c2ccc([N+](=O)[O-])o2)c1O` [CBU-038, (E)-2-hydroxy-3-methyl-N′-((E)-3-(5-nitrofuran-2-yl)allylidene)benzohydrazide], the IC50 is 9 µM.
With `O=C(N/N=C/C=C/c1ccc([N+](=O)[O-])o1)c1cnc2cc(C(F)(F)F)ccc2c1O` [CBU-039, (E)-4-hydroxy-N′-((E)-3-(5-nitrofuran-2-yl)allylidene)-7-(trifluoromethyl)quinoline-3-carbohydrazide], the IC50 was 15 µM. Against the preceding compound, the IC50 is about 1.7-fold higher.
The compound `O=C(N/N=C/C=C/c1ccc([N+](=O)[O-])o1)c1cnc2c(C(F)(F)F)cccc2c1O` [CBU-040, (E)-4-hydroxy-N′((E)-3-(5-nitrofuran-2-yl)allylidene)-8-(trifluoromethyl)quinoline-3-carbohydrazide] had an IC50 of 10 µM.
Consider `O=C(N/N=C/C=C/c1ccc([N+](=O)[O-])o1)c1cc(Br)ccc1O` [CBU-041, (E)-5-bromo-2-hydroxy-N′-((E)-3-(5-nitrofuran-2-yl)allylidene)benzohydrazide], for which the half-maximal inhibitory concentration (IC50) was 10 µM.
Still for that read-out and setting: in the case of `O=C(N/N=C/C=C/c1ccc([N+](=O)[O-])o1)c1ccc(O)cc1O` [CBU-042, (E)-2,4-dihydroxy-N′-((E)-3-(5-nitrofuran-2-yl)allylidene)benzohydrazide] it was 40 µM; in that of `COc1ccc(C(=O)N/N=C/C=C/c2ccc([N+](=O)[O-])o2)c(O)c1` [CBU-043, (E)-2-hydroxy-4-methoxy-N′-((E)-3-(5-nitrofuran-2-yl)allylidene)benzohydrazide], 30 µM; in that of `Cc1ccc(O)c(C(=O)N/N=C/C=C/c2ccc([N+](=O)[O-])o2)c1` [CBU-045, (E)-2-hydroxy-5-methyl-N′-((E)-3-(5-nitrofuran-2-yl)allylidene)benzohydrazide], 6 µM.
Same read-out and setting: under `COc1ccc(O)c(C(=O)N/N=C/C=C/c2ccc([N+](=O)[O-])o2)c1` [CBU-046, (E)-2-hydroxy-5-methoxy-N′-((E)-3-(5-nitrofuran-2-yl)allylidene)benzohydrazide] stands 10 µM; under `O=C(N/N=C/C=C/c1ccccc1)c1cc2ccccc2cc1O` [CBU-051, (E)-3-hydroxy-N′-((E)-3-phenylallylidene)-2-naphthohydrazide], 10 µM; under `CN(C)c1ccc(/C=C/C=N/NC(=O)c2cc3ccccc3cc2O)cc1` [CBU-054, (E)-N′-((E)-3-(4-(dimethylamino)phenyl)allylidene)-3-hydroxy-2-naphthohydrazide], 15 µM.
Same read-out and setting: under `O=C(N/N=C/C=C/c1ccccc1[N+](=O)[O-])c1cc2ccccc2cc1O` [CBU-055, (E)-3-hydroxy-N′-((E)-3-(2-nitrophenyl)allylidene)-2-naphthohydrazide] stands 6 µM.
Take `O=C(N/N=C/C=C/c1ccc([N+](=O)[O-])cc1)c1cc2ccccc2cc1O` [CBU-061, (E)-3-hydroxy-N′-((E)-3-(4-nitrophenyl)allylidene)-2-naphthohydrazide]: it took 5 µM to reach half-maximal inhibition (IC50).
As to `O=C(/C=C/c1ccc([N+](=O)[O-])o1)NNC(=O)c1cc2ccccc2cc1O` [CBU-062, (E)-3-hydroxy-N′-(3-(5-nitrofuran-2-yl)acryloyl)-2-naphthohydrazide], half-maximal inhibition (IC50) was put at 2.5 µM. Compared with the last compound, the IC50 is about 2-fold lower.
With `CC1(C)C(N(O)C(=S)Nc2ccc(Cl)cc2)N(c2ccc(Cl)cc2)C(=S)N1CC(=O)N/N=C/C=C/c1ccc([N+](=O)[O-])o1` (centres unmarked) [CBU-073], the IC50 came out at 3 µM. This IC50 and that of the compound before are within 1.5-fold of each other.

The term IC50 denotes the midpoint of a concentration-inhibition curve. A low value points to greater potency in that assay.
